Measurements: PMC10120551, “Novel Glu-based pyrazolo[3,4-d]pyrimidine analogues: design, synthesis and biological evaluation as DHFR and TS dual inhibitors” (Journal of Enzyme Inhibition and Medicinal Chemistry, 2023)

Assays:
BT-549 = experiment: NCI one-dose screen (SRB); format: cell-based, human; details: BT-549, Breast cancer; 10 µM single dose
Procedure: (§1) The growth percentage (G%) and cell viability of the herein target compounds 6a–l, 7a,b, and 9a–c have been screened towards a full panel of 59 cancer cells at NCI’s Developmental Therapeutics Program (NCI-DTP, MD, USA)[21]. The submitted analogues were initially examined for preliminary in vitro anticancer activity using sulforhodamine B (SRB) assay at 10 µM as a single dose to evaluate cell growth and viability according to the procedure of Drug Evaluation Branch[22]^,[23].
(§2) Different types of tumours – colon, NSCLC, leukaemia, CNS, renal, breast, ovarian, melanoma, and prostate cancers – were investigated as a full panel of 59 cell lines, and the attained results are cited in Figures S1–S17 (see Supplementary Material) where the value recorded is the growth relative to that of both the negative control and zero-time number of cells in which both growth inhibition (GI%; 0–100%) and lethality (L%; 0–100%) percentages can be identified. The growth inhibition means percentages (MGI%) for the examined target analogues towards the different treated 59 cancer cells were presented in Figure 2.
(§3) The designed analogues were submitted to NCI-Chemotherapeutic Agents Repository (MD, USA) for screening on a panel of 59 cancer cell lines. All compounds were initially examined at 10 µM concentration (Single-Dose Screen), and then the most efficient analogue 6i was screened further at 0.01–100 µM (Five-Dose Screen). The screening procedures were performed according to NCI-Drug Evaluation Branch protocol using SRB protein assay, as described previously[21]^,[66]. The experimental procedures were detailed in the Supporting Information.

HCT-116 [1] = experiment: NCI one-dose screen (SRB); format: cell-based, human; details: HCT-116, Colon cancer; 10 µM single dose
Procedure: as §1, §2, §3

HOP-92 = experiment: NCI one-dose screen (SRB); format: cell-based, human; details: HOP-92, NSCLC; 10 µM single dose
Procedure: as §1, §2, §3

MDA-MB-435 [2] = experiment: NCI one-dose screen (SRB); format: cell-based, human; details: MDA-MB-435, Melanoma; 10 µM single dose
Procedure: as §1, §2, §3

MOLT-4 = experiment: NCI one-dose screen (SRB); format: cell-based, human; details: MOLT-4, Leukaemia; 10 µM single dose
Procedure: as §1, §2, §3

RPMI-8226 [3] = experiment: NCI one-dose screen (SRB); format: cell-based, human; details: RPMI-8226, Leukaemia; 10 µM single dose
Procedure: as §1, §2, §3

RXF 393 [4] = experiment: NCI one-dose screen (SRB); format: cell-based, human; details: RXF 393, Renal; 10 µM single dose
Procedure: as §1, §2, §3

SW-620 [5] = experiment: NCI one-dose screen (SRB); format: cell-based, human; details: SW-620, Colon cancer; 10 µM single dose
Procedure: as §1, §2, §3

[6] = system: full panel of 59 cancer cells; experiment: NCI one-dose screen (SRB), full panel; format: cell-based, human; details: Homo sapiens; mean over full panel of 59 cell lines; 10 µM single dose; read-out: MGI% (mean growth inhibition percentage)
Procedure: as §1, §2, §3

HCT-116 [7] = details: HCT-116, Colon cancer; five-dose 0.01–100 µM
SW-620 [8] = details: SW-620, Colon cancer; five-dose 0.01–100 µM
HL-60(TB) = experiment: cells; details: Homo sapiens
SF-295 [9] = details: SF-295, CNS cancer; five-dose 0.01–100 µM
MDA-MB-435 [10] = details: MDA-MB-435, Melanoma; five-dose 0.01–100 µM
OVCAR-3 [11] = details: OVCAR-3, Ovarian cancer; five-dose 0.01–100 µM
RXF 393 [12] = details: RXF 393, Renal cancer; five-dose 0.01–100 µM
TK-10 = details: TK-10, Renal cancer; five-dose 0.01–100 µM
MCF7 = details: MCF7, Breast cancer; five-dose 0.01–100 µM
HS 578 T [13] = details: Breast cancer, five-dose 0.01–100 µM
RPMI-8226 [14] = experiment: cells; details: Homo sapiens
HOP-62 = experiment: cells; details: Homo sapiens
COLO 205 = experiment: cells; details: Homo sapiens
HT29 = experiment: cells; details: Homo sapiens
SF-295 [15] = experiment: cells; details: Homo sapiens
U251 = experiment: cells; details: Homo sapiens
OVCAR-3 [16] = experiment: cells; details: Homo sapiens
OVCAR-4 = experiment: cells; details: Homo sapiens
CAKI-1 = experiment: cells; details: Homo sapiens
UO-31 = experiment: cells; details: Homo sapiens
MDA-MB-231/ATCC = experiment: cells; details: Homo sapiens
HS 578 T [17] = experiment: cells; details: Homo sapiens

**Q.** Which GI% (BT-549) does the source give for `CCOC(=O)CC[C@H](NC(=O)c1ccc(NC(=O)Cn2cnc3c(c(C)nn3-c3ccc(Br)cc3)c2=O)cc1)C(=O)OCC` [Compound 6i] here?
**A.** The GI% was 66.64%.

**Q.** And the GI% (HCT-116 [1])?
**A.** The GI% was 70.04%.

**Q.** What about the GI% (HOP-92) of the same molecule?
**A.** The GI% was 78.29%.

**Q.** And the GI% (MDA-MB-435 [2])?
**A.** The GI% was 57.10%.

**Q.** And the GI% (MOLT-4)?
**A.** Its GI% is 52.51%.

**Q.** And the GI% (RPMI-8226 [3])?
**A.** Its GI% is 53.52%.

**Q.** And the “L% (lethality)” value (RXF 393 [4])?
**A.** The value was 22.73%.

**Q.** And the GI% (SW-620 [5])?
**A.** The GI% was 62.17%.

**Q.** What about the inhibition at 10 µM [6] of the same molecule?
**A.** Its inhibition at 10 µM is 62%.

**Q.** What about the TGI (HCT-116 [7]) of the same molecule?
**A.** Its TGI is greater than 100 µM.

**Q.** What about the TGI (SW-620 [8]) of the same molecule?
**A.** The TGI was 44.4 µM.

**Q.** And the GI50 (HL-60(TB); HL-60)?
**A.** The GI50 was greater than 100 µM.

**Q.** What about the CC50 (HL-60(TB); HL-60, read-out: LC50) of the same molecule?
**A.** The CC50 was greater than 100 µM.

**Q.** What about the TGI (SF-295 [9]) of the same molecule?
**A.** The TGI was 31.9 µM.

**Q.** What about the TGI (MDA-MB-435 [10]) of the same molecule?
**A.** The TGI was 34.3 µM.

**Q.** What about the TGI (OVCAR-3 [11]) of the same molecule?
**A.** The TGI was 61.3 µM.

**Q.** What about the TGI (RXF 393 [12]) of the same molecule?
**A.** Its TGI is 50.9 µM.

**Q.** And the TGI (TK-10)?
**A.** The TGI was 86.2 µM.

**Q.** And the TGI (MCF7)?
**A.** The TGI was 16.5 µM.

**Q.** And the TGI (HS 578 T [13])?
**A.** Its TGI is 45.7 µM.

**Q.** And the GI50 (RPMI-8226 [14]; RPMI-8226)?
**A.** Its GI50 is 22.7 µM.

**Q.** And the CC50 (RPMI-8226 [14]; RPMI-8226, read-out: LC50)?
**A.** Its CC50 is greater than 100 µM.

**Q.** What about the GI50 (HOP-62; HOP-62) of the same molecule?
**A.** Its GI50 is 5.11 µM.

**Q.** What about the CC50 (HOP-62; HOP-62, read-out: LC50) of the same molecule?
**A.** The CC50 was 57.5 µM.

**Q.** And the GI50 (COLO 205; COLO 205)?
**A.** Its GI50 is 14 µM.

**Q.** What about the CC50 (COLO 205; COLO 205, read-out: LC50) of the same molecule?
**A.** Its CC50 is 96 µM.

**Q.** And the GI50 (HT29; HT-29)?
**A.** The GI50 was 18.4 µM.

**Q.** And the CC50 (HT29; HT-29, read-out: LC50)?
**A.** The CC50 was greater than 100 µM.

**Q.** And the GI50 (SF-295 [15]; SF-295)?
**A.** Its GI50 is 14.2 µM.

**Q.** And the CC50 (SF-295 [15]; SF-295, read-out: LC50)?
**A.** Its CC50 is 71.6 µM.

**Q.** And the GI50 (U251; U-251)?
**A.** The GI50 was 13.2 µM.

**Q.** And the CC50 (U251; U-251, read-out: LC50)?
**A.** Its CC50 is greater than 100 µM.

**Q.** What about the GI50 (OVCAR-3 [16]; OVCAR-3) of the same molecule?
**A.** The GI50 was 11.7 µM.

**Q.** What about the CC50 (OVCAR-3 [16]; OVCAR-3, read-out: LC50) of the same molecule?
**A.** The CC50 was greater than 100 µM.

**Q.** What about the GI50 (OVCAR-4; OVCAR-4) of the same molecule?
**A.** Its GI50 is 13.4 µM.

**Q.** And the CC50 (OVCAR-4; OVCAR-4, read-out: LC50)?
**A.** Its CC50 is 76.7 µM.

**Q.** What about the GI50 (CAKI-1; CAKI-1) of the same molecule?
**A.** The GI50 was 10.4 µM.

**Q.** And the CC50 (CAKI-1; CAKI-1, read-out: LC50)?
**A.** Its CC50 is 47 µM.

**Q.** What about the GI50 (UO-31; UO-31) of the same molecule?
**A.** The GI50 was 18.1 µM.

**Q.** And the CC50 (UO-31; UO-31, read-out: LC50)?
**A.** Its CC50 is greater than 100 µM.

**Q.** What about the GI50 (MDA-MB-231/ATCC; MDA-MB-231) of the same molecule?
**A.** Its GI50 is 11.5 µM.

**Q.** What about the CC50 (MDA-MB-231/ATCC; MDA-MB-231, read-out: LC50) of the same molecule?
**A.** Its CC50 is 62.5 µM.

**Q.** What about the GI50 (HS 578 T [17]) of the same molecule?
**A.** The GI50 was 12.7 µM.

**Q.** What about the CC50 (HS 578 T [17]; read-out: LC50) of the same molecule?
**A.** Its CC50 is greater than 100 µM.
